These results are taken from patent US20110319485A1, “Composition Having Anti-Helicobacter Pylori Activity And Its Application To Inhibit Helicobacter Pylori” (Yushen Biotechnology & Medical Co, Ltd., priority 2010, published 2011).

The MIC is the lowest concentration that inhibits growth of the organism. For orientation: MBC means the smallest concentration meeting the test's criterion for killing.

The test system of assay [1] is Helicobacter pylori BCRC 17027 strain. Kind of assay: Minimum inhibitory concentration (MIC), agar-dilution method. The assay is classed as cell-based. The note with it: BCRC17027, agar dilution assay, TSA with 5% sheep blood, 72 hours, 37° C. The procedure: H. pylori BCRC 17027 was obtained from the Bioresources Collection and Research Center (BCRC), Hsinchu, Taiwan, ROC. The H. pylori strain was cultured in 5 mL tryptic soy broth (TSB, each liter containing: 17 g peptone from casein, 3 g peptone from soymeal, 2.5 g dextrose, 5 g sodium chloride, 2.5 g dipotassium phosphate, pH 7.3) with a tryptic soy agar (TSA, each liter containing: 15 g peptone from casein, 5 g peptone from soymeal, 5 g sodium chloride, 15 g agar, pH 7.3) and slant containing 5% (v/v) of defibrinated sheep blood formed at the bottom of the test tube.
The broth was incubated in a microaerophilic jar system (BBL), featuring a gas composition of 5% O2, 10% CO2 and 85% N2 (BD GasPak™ EZ Gas Generating systems), at 37° C. for 72 hours. The cell suspension was then diluted with TSB to provide a cell concentration of 3×10^8 CFUs/mL for antimicrobial testing.
The MIC of the purified substance was determined by the agar-dilution method (Shungu et al., 1987, Antimicrob Agents Chemother, 31: 949-950). A volume of 40 μL of cell suspension (initial bacterial count 3×10^8 CFUs/mL) was spread onto the TSA agar plates containing 5% (v/v) defibrinated sheep blood. […] DMSO was used as control. Metronidazole (MTZ) and clarithromycin (CLA) were co-assayed as the positive reference at concentrations of 8.0-128.0 μg/mL and 0.008-0.128 μg/mL, respectively. Following incubation in a microaerophilic jar system, featuring a gas composition of 5% O2, 10% CO2 and 85% N2, at 37° C. for 72 hours, the colonies that had formed on the plates were enumerated. The MIC was defined as the minimum concentration of the test sample (antibacterial agent) in a given culture medium on which bacteria are not able to form colonies.
Background: In agar dilution the substance is mixed into plates at graded concentrations.

The test system is the same in assay [2]. Kind of assay: Minimum bactericidal concentration (MBC), broth dilution. It is filed as cell-based. The note with it: broth dilution assay, 1 hour exposure in Brucella broth, then plated 72 hours, means of three experiments. For orientation: Broth dilution looks for growth in wells or tubes with falling amounts of substance.
The test system of assay [3] is Helicobacter pylori. The settings on record: A Vasquez et al., 1996; cited from earlier work.
Assay [4] relates to H. pylori BCRC 17027. Kind of assay: Inhibitory-zone measurement (agar well diffusion assay). It is filed as cell-based, Helicobacter pylori. The note with it: for zone of inhibition at 40000 µg/mL: Helicobacter pylori, BCRC17027, 72 h, read-out: The diameter of inhibitory-zone. The protocol:
H. pylori BCRC 17027 was obtained from the Bioresources Collection and Research Center (BCRC), Hsinchu, Taiwan, ROC. […] The cell suspension was then diluted with TSB to provide a cell concentration of 3×10^8 CFUs/mL for antimicrobial testing. An agar well diffusion assay was used to determine if H. pylori was susceptible to the anti-bacterial activity of the various fractions and isolates (al Somal et al., 1994, J R Soc Med, 87: 9-12). A volume of 100 μL for each of the bacterial suspensions tested (3×10^8 CFUs/mL) was spread onto the TSA agar plate containing 5% (v/v) defibrinated sheep blood. Wells sized 7 mm in diameter were punched on the plates with 5 μL of the Fr1-Fr5 and ovatodiolide (40 mg/mL; DMSO as solvent) to be individually incorporated into the wells. DMSO was used as negative control and metronidazole (MTZ, 40 mg/mL) was used as positive control.

Setting [5] is: Helicobacter pylori, BCRC17027, read-out: MBC.
Setting [6] is: 5 μL of 40 mg/mL in DMSO per 7 mm well (200 μg/disk), 72 hours, 37° C., microaerophilic, mean±S.D.

Values after ≈ are worked out from the molar mass of the structure shown. Like-named read-outs stand apart in the source and are kept apart here. Marks after values point to notes of the source that are not given here.

Consider `CC[C@H]1OC(=O)[C@H](C)[C@@H](O[C@H]2C[C@@](C)(OC)[C@@H](O)[C@H](C)O2)[C@H](C)[C@@H](O[C@@H]2O[C@H](C)C[C@H](N(C)C)[C@H]2O)[C@](C)(OC)C[C@@H](C)C(=O)[C@H](C)[C@@H](O)[C@]1(C)O` [Clarithromycin], for which 0.032 µg/mL (≈ 0.0428 µM) was the least that counted as inhibitory in assay [1] (MIC). Moreover, in assay [2] (setting [5]), the MBC was determined as 1 µg/mL (≈ 1.34 µM). In addition, in assay [3], the “minimum inhibitory concentration of known antibiotics” value is 0.25 µg/mL.
In the case of `C=C1C(=O)OC2/C=C(\C)C[C@H]3C=C(CC/C=C(\C)CC[C@H]12)C(=O)O3` (stereo partly shown) [Ovatodiolide, ovatodiolide], the “The diameter of inhibitory-zone” value in assay [4] (setting [6]) is 34.4 ± 2.0 mm. Besides, the zone of inhibition at 40000 µg/mL in assay [4] (setting [6]) worked out at 34 mm. This molecule registered an MIC in assay [1] of 16 µg/mL (≈ 48.7 µM). Besides, the values for the MBC in assay [2] (setting [5]) and in assay [2] were 80 µg/mL (≈ 244 µM) and 80^b μg/mL, respectively.
With `Cc1ncc([N+](=O)[O-])n1CCO` [Metronidazole], the zone of inhibition at 40000 µg/mL in assay [4] (setting [6]) worked out at 21.8 ± 3.1 mm. Also, the “Anti-Helicobacter pylori activity in inhibitory-zone assay (in words)” value in assay [4] (agar well diffusion) is on record as “inhibition halos smaller than ovatodiolide”. Inhibition of growth in assay [1] (MIC) required 64 µg/mL (≈ 374 µM). Moreover, the minimal bactericidal concentration (MBC) in assay [2] (setting [5]) came out at 2560 µg/mL (≈ 15000 µM). In assay [3], the “minimum inhibitory concentration of known antibiotics” value was 64 µg/mL.
